In one series the target is T1, trypsin (Bos taurus, UniProt P00760).
T1 sequence (P00760 24-246): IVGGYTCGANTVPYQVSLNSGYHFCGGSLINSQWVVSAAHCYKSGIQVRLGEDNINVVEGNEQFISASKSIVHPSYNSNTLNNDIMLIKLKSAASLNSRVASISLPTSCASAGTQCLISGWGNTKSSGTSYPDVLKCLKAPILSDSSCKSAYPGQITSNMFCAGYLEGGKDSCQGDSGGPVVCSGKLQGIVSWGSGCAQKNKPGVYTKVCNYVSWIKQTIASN
Kind of series: Inhibition of trypsin hydrolysis of p-tosylarginine methyl ester in vitro. In kind it is biochemical. Particulars: trypsin 0.5 μg, p-tosylarginine methyl ester 20 mM, Tris-HCl pH 8.5, 37° C., 30 minutes; read-out: 50% Inhibition Concentration Anti-trypsin. Here is the method:
(§1) The inhibitory activities of representative compounds of the general formula [I] against plasmin and trypsin in vitro were determined in a manner similar to the method described by M. Muramatsu et al J. Biochemistry, 58, 214 (1964) for trypsin and the method described by M. Muramatsu et al ibid, 57, 402 (1965) for plasmin. The procedures used are described more specifically below.
(1) Trypsin: 0.4 ml of trypsin (1.25 μg/ml), 0.5 ml of p-tosylarginine methyl ester (20 mM) in Tris-HCl buffer (pH 8.5) and 0.1 ml of a solution of each of the following compounds represented by the general formula [I] at various concentrations was reacted at a temperature of 37° C. for 30 minutes, and the concentration of each of the test compounds at which the activity of trypsin 0.5 μg to hydrolyze p-tosylarginine methyl ester was inhibited to an extent of 50% is shown in Table 1 below.

A further series deals with T2, plasmin (Homo sapiens, UniProt P00747).
T2 construct: from tissue
T2 sequence (P00747 97-580 limits assumed): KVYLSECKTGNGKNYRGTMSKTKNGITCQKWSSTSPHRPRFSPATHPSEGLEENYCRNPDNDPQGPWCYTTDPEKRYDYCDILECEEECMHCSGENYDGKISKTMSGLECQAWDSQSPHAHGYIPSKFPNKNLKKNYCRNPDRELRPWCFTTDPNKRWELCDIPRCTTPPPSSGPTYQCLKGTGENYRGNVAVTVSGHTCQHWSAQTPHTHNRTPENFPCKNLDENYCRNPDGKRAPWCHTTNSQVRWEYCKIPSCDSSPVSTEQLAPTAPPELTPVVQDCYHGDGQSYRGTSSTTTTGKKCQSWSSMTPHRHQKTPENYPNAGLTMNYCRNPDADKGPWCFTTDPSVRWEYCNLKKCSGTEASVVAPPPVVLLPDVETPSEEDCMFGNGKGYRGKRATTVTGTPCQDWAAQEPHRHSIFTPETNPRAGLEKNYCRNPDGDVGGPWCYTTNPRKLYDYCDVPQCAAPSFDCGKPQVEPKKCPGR
T2 sequence (P00747 581-810 limits assumed): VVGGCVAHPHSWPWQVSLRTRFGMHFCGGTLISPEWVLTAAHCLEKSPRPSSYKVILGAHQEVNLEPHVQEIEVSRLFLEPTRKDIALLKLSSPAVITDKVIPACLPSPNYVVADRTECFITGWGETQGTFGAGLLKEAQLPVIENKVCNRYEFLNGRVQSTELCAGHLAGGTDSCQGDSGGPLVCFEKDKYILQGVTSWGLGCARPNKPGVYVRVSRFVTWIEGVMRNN
Kind of series: Inhibition of plasmin in vitro (human euglobulin, streptokinase, fibrinogen). Conditions: borate saline buffer pH 7.4, 37° C., 30 minutes, read-out: 50% Inhibition Concentration Anti-Plasmin. In kind it is biochemical. How it is done:
as §1
(2) Plasmin: 0.1 ml of human euglobulin (10 fold dilution), 0.1 ml of streptokinase (2000 unit/ml), 0.4 ml of fibrinogen (4% solution), 0.3 ml of a 0.1 M borate saline buffer solution (pH 7.4) and 0.1 ml of a solution of each of the following compounds represented by the general formula [I] at various concentrations was allowed to react at a temperature of 37° C. for 30 minutes.

The next series is described as follows: Solubility in water. In kind it is physicochemical.

SMILES strings stand for the structures. Where only a bound is given, the exact number is not on record here.

On to `N=C(N)Nc1ccc(C(=O)Oc2ccc(S(N)(=O)=O)cc2)cc1` [Compound No. 3], for which the IC50 on trypsin came out at 2.2 nM; on plasmin, 4.8 nM. For the same compound, in the series “Solubility in water”, the solubility (commonly how much of the substance goes into solution per volume) was over 20 mM.
On the same counts, the results for `CNC(=O)Cc1ccc(OC(=O)c2ccc(NC(=N)N)cc2)cc1` [Compound No. 5] are 9.1 nM, 410 nM and over 20 mM.
With `CN(C)S(=O)(=O)c1ccc(OC(=O)c2ccc(NC(=N)N)cc2)cc1` [Compound No. 2], the IC50 is 2 nM on trypsin and 6.4 nM on plasmin. This compound also gave a solubility in “Solubility in water” of over 20 mM.
In the case of `CN(C)C(=O)c1ccc(OC(=O)c2ccc(NC(=N)N)cc2)cc1` [Compound No. 6], the IC50 on trypsin was determined as 11 nM; on plasmin, 95 nM. Moreover, the solubility in “Solubility in water” is over 20 mM.
For `CN(C)C(=O)Cc1ccc(OC(=O)c2ccc(NC(=N)N)cc2)cc1` [Compound No. 4], the results for the IC50 at trypsin and at plasmin were 3.4 nM and 270 nM, respectively. In “Solubility in water”, this compound had a solubility of over 20 mM.
As to `CNS(=O)(=O)c1ccc(OC(=O)c2ccc(NC(=N)N)cc2)cc1` [Compound No. 1], the results for the IC50 at trypsin and at plasmin were 3 nM and 3.1 nM, respectively. Also, the solubility in “Solubility in water” is over 20 mM.

These data come from patent publication US4283418A, “Guanidinobenzoic acid derivatives and process for their preparation” (Ono Pharmaceutical Co., Ltd., priority 1979, dated 1981).
